“Also recorded” adds a separate entry of the source.
Tests used:
[1] = Mouse pharmacokinetics after oral dosing; format: in vivo, mice; conditions: for adverse reactions in plasma exposure study: single and repeat dosing; for plasma levels reached after single oral dose: uninfected mice
[2] = system: P. berghei; test: P. berghei mouse in vivo efficacy testing; parameters: species or system Plasmodium berghei in mice; conditions: for ill effects from compound administration: oral 100 mg/kg/dose every 4 h × 10, then every 6 h × 6; for impact on parasite blood levels in P. berghei mouse model: oral 100 mg/kg/dose every 4 hours × 10 doses, then every 6 hours × 6 doses
[3] = in vitro; conditions: human, microsomes
[4] = In vitro human microsomal metabolism; conditions: for Predicted EH (hepatic extraction ratio): estimated from measured rate of degradation in vitro; for Predicted EH (hepatic extraction ratio) / microsomal CLint at 1 µM: human; for microsomal CLint at 1 µM: pooled human liver microsomes; for Putative metabolites: human liver microsomes, LC/MS
[5] = target: PfDHODH (Plasmodium falciparum, UniProt Q08210); conditions: unsubstituted phenyl; cited from earlier work
[6] = target: PbDHODH (Plasmodium berghei, UniProt A0A509AEH5); test: PbDHODH steady-state inhibition assay; format: biochemical; conditions: PbDHODH vs PfDHODH
[7] = system: Pf 3D7 cells; conditions: read-out: EC50 against P. falciparum in whole cell assays; cited from earlier work

PfDHODH, sequence (Q08210 158-569): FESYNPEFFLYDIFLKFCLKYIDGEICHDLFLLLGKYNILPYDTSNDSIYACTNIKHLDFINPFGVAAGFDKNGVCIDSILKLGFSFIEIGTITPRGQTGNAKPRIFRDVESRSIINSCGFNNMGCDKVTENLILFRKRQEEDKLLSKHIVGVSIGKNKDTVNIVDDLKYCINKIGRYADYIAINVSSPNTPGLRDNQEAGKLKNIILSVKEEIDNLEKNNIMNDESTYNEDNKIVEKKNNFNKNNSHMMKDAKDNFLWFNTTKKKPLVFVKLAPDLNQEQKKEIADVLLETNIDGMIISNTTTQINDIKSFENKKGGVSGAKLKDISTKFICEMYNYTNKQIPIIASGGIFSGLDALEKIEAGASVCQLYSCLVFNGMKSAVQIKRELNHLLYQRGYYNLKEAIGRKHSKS

**Q.** Which “time plasma concentrations maintained above 1 µM (0.29 µg/mL)” value ([1]; mice, single oral dose 50 mg/kg) does the source give for `Cc1cc(Nc2ccc(C(F)(F)F)cc2)n2ncnc2n1` [Compound 21, (5-Methyl-[1,2,4]triazolo[1,5-a]pyrimidin-7-yl)-(4-trifluoromethyl-phenyl)-amine] here?
**A.** 16 h

**Q.** What about the “adverse reactions after oral administration” value ([1]; mice, single oral dose 20 or 50 mg/kg) of the same compound?
**A.** No adverse reactions

**Q.** And the “adverse reactions in efficacy study” value ([2]; infected mice, 50 mg/kg oral q.d. or b.i.d. for 4 days)?
**A.** No adverse reactions

**Q.** What about the microsomal CLint [3] of the same compound?
**A.** 7.5 µL/min/mg

**Q.** What does the source list for `Cc1cc(Nc2ccc(F)c(C)c2)n2ncnc2n1` [Compound 40, (4-Fluoro-3-methyl-phenyl)-(5-methyl-[1,2,4]triazolo[1,5-a]pyrimidin-7-yl)-amine]?
**A.** Predicted EH (hepatic extraction ratio) [4]: 0.64; microsomal CLint at 1 µM [4]: 31 µL/min/mg

**Q.** Which Putative metabolites [4] does the source give for `Cc1cc(Nc2ccc(C#N)c(C(F)(F)F)c2)n2ncnc2n1` [Compound 45, 4-(5-Methyl-[1,2,4]triazolo[1,5-a]pyrimidin-7-ylamino)-2-trifluoromethyl-benzonitrile] here?
**A.** no metabolites were detected; also recorded: None detected

**Q.** For `Cc1cc(Nc2cccc(Cl)c2)n2ncnc2n1` [Compound 14, (3-Chloro-phenyl)-(5-methyl-[1,2,4]triazolo[1,5-a]pyrimidin-7-yl)-amine], which microsomal CLint [3] is on record?
**A.** 38 µL/min/mg

**Q.** With `Cc1cc(Nc2cccc(C(F)(F)F)c2)n2ncnc2n1` [Compound 16, (5-Methyl-[1,2,4]triazolo[1,5-a]pyrimidin-7-yl)-(3-trifluoromethyl-phenyl)-amine] as the compound, how does the “Predicted EH (hepatic extraction ratio)” value [4] read?
**A.** 0.62

**Q.** And the microsomal CLint at 1 µM [4]?
**A.** 29 µL/min/mg

**Q.** For `Cc1cc(Nc2ccc(C(F)(F)F)c(F)c2)n2ncnc2n1` [Compound 47, (3-Fluoro-4-trifluoromethyl-phenyl)-(5-methyl-[1,2,4]triazolo[1,5-a]pyrimidin-7-yl)-amine], which Putative metabolites [4] is on record?
**A.** no metabolites were detected; also recorded: None detected

**Q.** For `Cc1cc(Nc2ccccc2)n2ncnc2n1` [Compound 4], which “activity (in words)” value [5] is on record?
**A.** completely inactive

**Q.** With `Cc1cc(Nc2cccc(F)c2)n2ncnc2n1` [Compound 13, (3-Fluoro-phenyl)-(5-methyl-[1,2,4]triazolo[1,5-a]pyrimidin-7-yl)-amine] as the compound, how does the “Predicted EH (hepatic extraction ratio)” value [4] read?
**A.** 0.50

**Q.** And the microsomal CLint at 1 µM [4]?
**A.** 18 µL/min/mg

**Q.** With `Cc1cc(Nc2ccc(Br)c(C(F)(F)F)c2)n2ncnc2n1` [Compound 42, (4-Bromo-3-trifluoromethyl-phenyl)-(5-methyl-[1,2,4]triazolo[1,5-a]pyrimidin-7-yl)-amine] as the compound, how does the “Predicted EH (hepatic extraction ratio)” value [4] read?
**A.** 0.43

**Q.** And the microsomal CLint at 1 µM [4]?
**A.** 14 µL/min/mg

**Q.** With `Cc1cc(Nc2ccc3cc4ccccc4cc3c2)n2ncnc2n1` [Compound 3, (5-Methyl-[1,2,4]triazolo[1,5-a]pyrimidin-7-yl)-anthracen-2-yl-amine] as the compound, how does the “IC50 fold higher for PbDHODH than for PfDHODH” value [6] read?
**A.** 66 fold

**Q.** And the “Predicted EH (hepatic extraction ratio)” value [4]?
**A.** 0.70

**Q.** What about the microsomal CLint at 1 µM [4] of the same compound?
**A.** 37 µL/min/mg

**Q.** And the “plasma concentrations after last dose of repeat dosing relative to single dose” value ([1]; mice, 50 mg/kg oral for 2 to 4 days)?
**A.** significantly reduced

**Q.** What about the “plasma concentrations maintained over 240 min” value ([1]; mice, 50 mg/kg oral single dose) of the same compound?
**A.** 1000 to 3000 nM

**Q.** And the observed plasma levels ([1]; mice, 50 mg/kg oral, repeat dosing)?
**A.** ~ 1 µM

**Q.** And the “adverse reactions in plasma exposure study” value ([1]; mice, 50 mg/kg oral)?
**A.** No adverse reactions

**Q.** And the “plasma levels reached after single oral dose” value ([1]; 50 mg/kg oral single dose)?
**A.** 2000 to 3000 nM

**Q.** And the “ill effects from compound administration” value ([2]; infected mice)?
**A.** no major ill effects

**Q.** And the “impact on parasite blood levels in P. berghei mouse model” value [2]?
**A.** neither compound had any impact

**Q.** Which “plasma levels at 240 min on day 4 of repeat dosing” value ([1]; mice, 50 mg/kg oral 1x daily repeat dosing) does the source give for `Cc1cc(Nc2ccc3ccccc3c2)n2ncnc2n1` [Compound 2, (5-methyl-[1,2,4]triazolo[1,5-a]pyrimidin-7-yl)-naphthalen-2-yl-amine] here?
**A.** nearly undetectable

**Q.** What about the “adverse reactions in plasma exposure study” value ([1]; mice, 50 mg/kg oral) of the same compound?
**A.** No adverse reactions

**Q.** What about the “plasma levels reached after single oral dose” value ([1]; 50 mg/kg oral single dose) of the same compound?
**A.** 2000 to 3000 nM

**Q.** And the “ill effects from compound administration” value ([2]; infected mice)?
**A.** no major ill effects

**Q.** And the “impact on parasite blood levels in P. berghei mouse model” value ([2]; 100 mg/kg)?
**A.** no activity; also recorded: neither compound had any impact

**Q.** What about the microsomal CLint [3] of the same compound?
**A.** 96 µL/min/mg

**Q.** What about the EC50 [7] of the same compound?
**A.** 80 nM

**Q.** Which “Predicted EH (hepatic extraction ratio)” value [4] does the source give for `Cc1cc(Nc2ccc(Cl)c(C(F)(F)F)c2)n2ncnc2n1` [Compound 41, (4-Chloro-3-trifluoromethyl-phenyl)-(5-methyl-[1,2,4]triazolo[1,5-a]pyrimidin-7-yl)-amine] here?
**A.** 0.42

**Q.** What about the microsomal CLint at 1 µM [4] of the same compound?
**A.** 13 µL/min/mg

Source: publication PMC2746568 (Journal of medicinal chemistry, 2009)
